Marks after values point to notes of the source that are not given here.
How the values were obtained:
[1] = mouse, in vivo
Description: The activity of paclitaxel, with or without AZT, was evaluated in immunodeficient mice (male Balb/c nu/nu mice, 6-8 weeks old) bearing the human pharynx FaDu xenografts. […] The saline control group received injections of 200 μl/day of physiological saline of five consecutive days. The paclitaxel group received injections of 10 mg/kg/day paclitaxel dissolved in Cremophor and ethanol (i.e., Taxol) in a volume of 200 μl for five consecutive days. The AZT group received a seven-day infusion of AZT at a rate of 200 ng/hr by a subcutaneously implanted Alzet minipump. […] Animal weights and tumor sizes were measured on days 1, 3, 6, 8, and 10 after initiation of the paclitaxel treatment.

SKOV3 cells = test: FISH detection of damaged telomeres after paclitaxel treatment; assay type: cell-based, human; conditions: 200 nM paclitaxel
Description: Fluorescent in situ hybridization (FISH). Fluorescent in situ hybridization (FISH) was used to identify the presence and to estimate the approximate length of individual telomere structures at the end of chromosomes. The FISH method used was a modification of a previously published method (Multani A S et al. (1996) Anticancer Res 16: 3435-3438; Henderson S et al. (1996) J Cell Biol 134:1-12), and consists of the following three steps: (a) the cells are fixed in a manner that promotes spreading of the chromosomes, (b) a nucleotide sequence complementary to the telomere sequence is used as probe to bind to the telomeres and to provide a point of attachment for fluorescently-labeled antibodies, and (c) the fluorescent signal is identified using fluorescent microscopy.
The methods are as follows. To spread the chromosomes, the cell pellet was incubated with a hypotonic solution (75 mM KCl) at 37° C. for 20 min, washed three times and fixed with acetic acid and methanol, dropped onto slides, air-dried, and denatured in 2×SSC and 70% formamide at 74° C. for 5 min. To detect the telomeres, the cells were incubated with a digoxigenin-labeled human telomeric probe (Oncor) at 37° C. for 16 to 18 hr. The slides were washed consecutively in 2×SSC at 42° C. and 72° C., each time for 5 min. After blocking with 5% skim milk for 10 min, cells were incubated sequentially with rhodamine-labeled (red color) anti-digoxigenin, rabbit anti-sheep, and rhodamine-labeled anti-rabbit antibodies, at room temperature for 30 min. Between each step, the slides were washed three times in 130 mM phosphate buffer, pH 7.4, 0.1% Triton X-100, each time for 5 min. The chromosomes were then counterstained with 0.1 μg/ml of […] (blue color) and examined under a fluorescence microscope at 100× magnification using a triple band pass filter at 340 nm.

PC3 cells = test: Time course of apoptotic changes (caspase 3, PARP cleavage, DNA fragmentation, DNA-histone release); assay type: cell-based, human; conditions: 20 nM paclitaxel
Description: Caspase Activity. The activity of Caspase 3 was measured using the ApoAlert CPP32 assay (Clontech Laboratories, Palo Alto, Calif.). Briefly, 1×10^6 cells were lysed using the lysis buffer provided in the assay kit. The lysate was stored at −20° C. and analyzed within 1 week. Enzyme activity was detected by the cleavage of the substrate, Asp-Glu-Val-Asp-7-amino-4-trifluoromethyl coumarin (DEVD-AFC) to AFC, which emits a yellow-green fluorescence at 505 nm. The increase in caspase activity is measured as the ratio of the fluorescence intensity of a agent-treated sample (e.g., paclitaxel) to that of control cells collected at the same time.
PARP Cleavage. […] PARP cleavage was analyzed by immunoblotting. […] Protease inhibitors were used to minimize proteolytic cleavage of PARP during processing. […] Samples were sonicated on ice, resuspended using a 21 gauge needle, and then incubated at 75° C. for 15 min. After centrifugation, an aliquot representing 1.5×10^5 cells was loaded on a 10% SDS polyacrylamide gel and run at 30 mA overnight. The gel was transferred onto a […] nitrocellulose membrane by electroblotting. The membrane was incubated with blocking solution (5% non-fat dry milk in PBS containing 0.1% Tween 20) for 1 hr, followed by incubation with the PARP monoclonal antibody overnight at 4° C. and subsequently the anti-mouse immunoglobulin. After washing the membrane in PBS twice for 5 min each and once for 30 min, the immunoreactive bands were visualized by incubation of the membrane with the chemiluminescence immunoblot kit.
Release of DNA-Histone Complex to Cytoplasm. The level of DNA-histone mono- and oligonucleosomes in the cytoplasm was measured using the cell death detection ELISA kit. Briefly, 5000 cells were lysed in the lysis buffer. The cytoplasmic fractions of the lysates were placed in a […] precoated with mouse antihistone primary antibody and mouse anti-DNA antibody conjugated to peroxidase. The peroxidase substrate, 2,2′-azido-di-[3-ethylbenzthiazoline sulfonate], was applied and the absorbance at 405 nm was measured.
DNA Fragmentation. […] DNA was extracted twice with phenol/chloroform (1:1) and once with chloroform, and precipitated by adding 0.2 volume 10 M […] and 2 volumes ethanol. The pellet obtained after centrifugation was resuspended in 100 mM Tris-HCl and 10 mM EDTA (pH 8.0). The amount of DNA was measured by the absorbance at 260 nm, using a spectrophotometer. Samples showing a 260:280 absorbance ratio of >1.8, which ascertained the purity of the isolated DNA, were analyzed by gel electrophoresis. […] The DNA laddering pattern was visualized by UV transillumination and photographed.

CC(=O)O[C@H]1C(=O)[C@@]2(C)[C@H]([C@H](OC(=O)c3ccccc3)[C@]3(O)C[C@H](OC(=O)[C@H](O)[C@@H](NC(=O)c4ccccc4)c4ccccc4)C(C)=C1C3(C)C)[C@]1(OC(C)=O)CO[C@@H]1C[C@@H]2O [paclitaxel]
End-of-experiment body weight [1]: 97∀6 ^a % of pretreatment value
body weight loss compared to the pretreatment weight [1]: < 3%
attached cells showing damaged telomeres (SKOV3 cells; 1 and 12 hr): < 5%
detached cells showing damaged telomeres (SKOV3 cells; 1 hr): 40%
detached cells showing damaged telomeres (SKOV3 cells; 12 hr): 90%
treatment time after which shortening or deletion of telomeres was detectable (SKOV3 cells; FaDu and SKOV3): 1 h
caspase activation, time of occurrence (PC3 cells; attached cells): 24 h
PARP cleavage completed (PC3 cells; detached cells): < 72 h
PARP cleavage first detected (PC3 cells; detached cells): 24 h
caspase activation first detected (PC3 cells; detached cells): 12 h
caspase activation peak (PC3 cells; detached cells): 36 h
internucleosomal DNA fragmentation and release of DNA-histone complex first detected (PC3 cells; detached cells): 24 h

From patent publication US7662361B2, “Methods and compositions for modulating drug activity through telomere damage” (priority 1999, dated 2010)
